From US20240131028A1, “CHEMOVACCINATION AGAINST PLASMODIUM INFECTION WITH SELECTIVE PLASMEPSIN X INHIBITORS” (Merck Sharp & Dohme LLC, priority 2021, published 2024)

What follows are molecules tested on ring stage parasites (Pf) (assay: Parasite lactate dehydrogenase (LDH) growth assay (Parasite Assay, PfLDH Assay)). Settings: Plasmodium falciparum, 72 h, Table 3; 72 hours growth, LDH readout; read-out: EC50.
Type: cell-based, P. falciparum

**Q.** For `Cc1ccc2c(c1)[C@@H](NC(=O)[C@H]1C[C@@H]1CN1C(=N)NC(C)(C)CC1=O)CC(C)(C)O2` [Example 128], which EC50 is on record?
**A.** 280 nM

**Q.** `CC[C@]1(C)CC(=O)N([C@H](CCOC)[C@H]2C[C@@H]2C(=O)NC2CC(C)(C)Oc3ccc(OC(F)(F)F)cc32)C(=N)N1` (stereo partly shown) [Example 129A] was tested. Which EC50 did it give?
**A.** 1.3 nM

**Q.** For `COCC[C@H]([C@H]1C[C@@H]1C(=O)NC1CC2(CCC2)Oc2ccccc21)N1C(=N)NC(C)(C)CC1=O` (stereo partly shown) [Example 131A], which EC50 is on record?
**A.** 6.8 nM

**Q.** For `COCC[C@H]([C@H]1C[C@@H]1C(=O)N[C@H]1CC(C)(C)Oc2ccc(C)cc21)N1C(=N)NC(C)(C)CC1=O` [Example 132], which EC50 is on record?
**A.** 6.7 nM

**Q.** `CC1(C)CC(=O)N(C[C@H]2C[C@@H]2C(=O)N[C@H]2CC3(CCC3)Oc3ccccc32)C(=N)N1` [Example 135] was tested. Which EC50 did it give?
**A.** 190 nM

**Q.** Which EC50 does the source give for `Cc1cc2c(cc1Cl)[C@@H](NC(=O)[C@H]1C[C@@H]1CN1C(=N)NC(C)(C)CC1=O)CC(C)(C)O2` [Example 136] here?
**A.** 160 nM

**Q.** With `COCC[C@H]([C@H]1C[C@@H]1C(=O)N[C@@H]1CC(C)(C)Oc2cc(C)c(Cl)cc21)N1C(=N)NC(C)(C)CC1=O` [Example 137A] as the molecule, how does the EC50 read?
**A.** 12 nM

**Q.** With `COCC[C@H]([C@H]1C[C@@H]1C(=O)N[C@H]1CC(C)(C)Oc2cc(C)c(Cl)cc21)N1C(=N)NC(C)(C)CC1=O` [Example 137B] as the molecule, how does the EC50 read?
**A.** 6.4 nM

**Q.** `COCC[C@H]([C@H]1C[C@@H]1C(=O)N[C@H]1CC(C)(C)Oc2cc(C)c(C)cc21)N1C(=N)NC(C)(C)CC1=O` [Example 138A] was tested. Which EC50 did it give?
**A.** 7.4 nM

**Q.** For `COCC[C@H]([C@H]1C[C@@H]1C(=O)N[C@@H]1CC(C)(C)Oc2cc(C)c(C)cc21)N1C(=N)NC(C)(C)CC1=O` [Example 138B], which EC50 is on record?
**A.** 18 nM

**Q.** `CC1C[C@H](NC(=O)[C@H]2C[C@@H]2CN2C(=N)NC(C)(C)CC2=O)c2cc(F)ccc2O1` (stereo partly shown) [Example 139A] was tested. Which EC50 did it give?
**A.** 99 nM

**Q.** With `CC1(C)CC(=O)N(C[C@H]2C[C@@H]2C(=O)N[C@H]2CC(C3CC3)Oc3ccccc32)C(=N)N1` (stereo partly shown) [Example 140A] as the molecule, how does the EC50 read?
**A.** 220 nM

Same assay, conditions: Plasmodium falciparum, 72 h, Table 4; 72 hours growth, LDH readout; read-out: EC50 (Table 4)

**Q.** For `CCC1(CC)CC(=O)N([C@H](CCOC)[C@H]2C[C@@H]2C(=O)N[C@@H]2CC(C)(C)Oc3ccccc32)C(=N)N1` [Example 141], which EC50 is on record?
**A.** 4.7 nM

**Q.** How did the EC50 turn out when `CCC1(CC)CC(=O)N([C@H](CCOC)[C@H]2C[C@@H]2C(=O)N[C@H]2c3ccccc3OC(C)(C)[C@@H]2O)C(=N)N1` [Example 144] was run?
**A.** 165 nM

**Q.** For `CCC1(CC)CC(=O)N([C@H](CCOC)[C@H]2C[C@@H]2C(=O)N[C@@H]2c3ccccc3OC(C)(C)[C@H]2O)C(=N)N1` [Example 145], which EC50 is on record?
**A.** 8.4 nM

**Q.** With `CCC1(CC)CC(=O)N([C@H](CCOC)[C@H]2C[C@@H]2C(=O)N[C@H]2CC(C)(C)Oc3ccc(Cl)cc32)C(=N)N1` [Example 146] as the molecule, how does the EC50 read?
**A.** 1.1 nM

**Q.** Which EC50 does the source give for `CCC1(CC)CC(=O)N([C@H](CCOC)[C@H]2C[C@@H]2C(=O)NC2CC(C)(C)Oc3c(Cl)cccc32)C(=N)N1` (stereo partly shown) [Example 148A] here?
**A.** 2.7 nM

**Q.** `CCC1(CC)CC(=O)N([C@H](CCOC)[C@H]2C[C@@H]2C(=O)NC2CC(C)(C)Oc3cccc(Cl)c32)C(=N)N1` (stereo partly shown) [Example 149A] was tested. Which EC50 did it give?
**A.** 1 nM

**Q.** How did the EC50 turn out when `CCC1(CC)CC(=O)N([C@H](CCOC)[C@H]2C[C@@H]2C(=O)NC2c3cc(Cl)ccc3OC(C)(C)[C@H]2O)C(=N)N1` (stereo partly shown) [Example 150] was run?
**A.** 3.9 nM

Same assay, conditions: Table 3; 72 hours growth, LDH readout; read-out: EC50

**Q.** How did the EC50 turn out when `CC[C@]1(C)CC(=O)N([C@H](CCOC)[C@H]2C[C@@H]2C(=O)NC2CC(C)(C)Oc3ccc(OC(F)(F)F)cc32)C(=N)N1` (stereo partly shown) [Example 129B] was run?
**A.** 2.5 nM

**Q.** For `COCC[C@H]([C@H]1C[C@@H]1C(=O)NC1CC2(CCC2)Oc2ccccc21)N1C(=N)NC(C)(C)CC1=O` (stereo partly shown) [Example 131B], which EC50 is on record?
**A.** 6.1 nM

**Q.** How did the EC50 turn out when `CC1C[C@H](NC(=O)[C@H]2C[C@@H]2CN2C(=N)NC(C)(C)CC2=O)c2cc(F)ccc2O1` (stereo partly shown) [Example 139B] was run?
**A.** 130 nM

**Q.** Which EC50 does the source give for `CC1(C)CC(=O)N(C[C@H]2C[C@@H]2C(=O)N[C@H]2CC(C3CC3)Oc3ccccc32)C(=N)N1` (stereo partly shown) [Example 140B] here?
**A.** 280 nM

Same assay, conditions: Table 4; 72 hours growth, LDH readout; read-out: EC50 (Table 4)

**Q.** How did the EC50 turn out when `CCC1(CC)CC(=O)N([C@H](CCOC)[C@H]2C[C@@H]2C(=O)NC2CC(C)(C)Oc3c(Cl)cccc32)C(=N)N1` (stereo partly shown) [Example 148B] was run?
**A.** 1.9 nM

**Q.** Which EC50 does the source give for `CCC1(CC)CC(=O)N([C@H](CCOC)[C@H]2C[C@@H]2C(=O)NC2CC(C)(C)Oc3cccc(Cl)c32)C(=N)N1` (stereo partly shown) [Example 149B] here?
**A.** 1.2 nM
